# Measurements from patent US9187413B2, “Peripherally restricted FAAH inhibitors” (The Regents of the University of California, priority 2010, dated 2015).
# Key:
# [1] = Tissue distribution of URB937 by LC/MS; format: in vivo; conditions: mice, 1 mg-kg^-1, i.p.
# Method: Tissue analyses. We performed tissue extractions and liquid chromatography/mass spectrometry analyses of endocannabinoids as described^38. Similar procedures were utilized for the tissue extraction and LC/MS quantification of URB937, as detailed further below.
# Tissue extractions Mice were sacrificed with isoflurane and tissues were collected and immediately frozen in liquid nitrogen. Frozen tissues were weighed and homogenized in methanol (1 mL) containing [^2H4]-anandamide, [^2H4]-PEA, [^2H8]-2-AG, and N-cyclohexyl biphenyl-3-ylacetamide as internal standards. Analytes were extracted with chloroform (2 vol) and washed with water (1 vol). Organic phases were collected and dried under nitrogen. The non-fractionated organic extract was used for quantification of URB937. For other analyses the organic extract was fractionated by open-bed silica gel column chromatography, as described^43. Briefly, the extract was dissolved in chloroform and loaded onto small glass columns packed with Silica Gel G (60˜A 230-400 Mesh ASTM; Whatman, Clifton, N.J.). […]
# Mobile phase A consisted of methanol containing 0.25% acetic acid, 5 mM ammonium acetate; mobile phase B consisted of water containing 0.25% acetic acid, 5 mM ammonium acetate. […] Na^+ adducts ([M+Na^+]) of analytes and internal standards were monitored in the selective ion-monitoring mode. Limit of quantification was 0.4 pmol.
# FAAH = FAAH (Mus musculus (Mouse), UniProt O08914); experiment: Tissue levels of anandamide, PEA and 2-AG by LC/MS; format: in vivo; conditions: mice, 1 mg-kg^-1, i.p.
# Sequence of FAAH (O08914 whole entry): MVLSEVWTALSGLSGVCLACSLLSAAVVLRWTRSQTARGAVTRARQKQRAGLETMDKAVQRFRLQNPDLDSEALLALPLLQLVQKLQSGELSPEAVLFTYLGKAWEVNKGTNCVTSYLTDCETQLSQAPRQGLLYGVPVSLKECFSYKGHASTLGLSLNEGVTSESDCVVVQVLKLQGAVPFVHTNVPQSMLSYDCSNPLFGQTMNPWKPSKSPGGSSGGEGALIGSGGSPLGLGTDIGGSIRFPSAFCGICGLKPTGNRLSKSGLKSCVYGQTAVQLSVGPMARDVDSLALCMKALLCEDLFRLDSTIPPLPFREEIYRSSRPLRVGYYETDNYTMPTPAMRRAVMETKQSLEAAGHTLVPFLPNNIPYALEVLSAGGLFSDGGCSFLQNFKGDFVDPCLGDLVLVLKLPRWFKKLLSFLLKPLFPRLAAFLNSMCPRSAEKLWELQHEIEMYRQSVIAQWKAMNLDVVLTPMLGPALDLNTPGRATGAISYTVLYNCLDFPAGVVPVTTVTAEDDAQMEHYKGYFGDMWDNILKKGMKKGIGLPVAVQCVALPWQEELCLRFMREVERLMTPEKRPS
# Method: Tissue extractions Mice were sacrificed with isoflurane and tissues were collected and immediately frozen in liquid nitrogen. Frozen tissues were weighed and homogenized in methanol (1 mL) containing [^2H4]-anandamide, [^2H4]-PEA, [^2H8]-2-AG, and N-cyclohexyl biphenyl-3-ylacetamide as internal standards. Analytes were extracted with chloroform (2 vol) and washed with water (1 vol). Organic phases were collected and dried under nitrogen. […] For other analyses the organic extract was fractionated by open-bed silica gel column chromatography, as described^43. Briefly, the extract was dissolved in chloroform and loaded onto small glass columns packed with Silica Gel G (60˜A 230-400 Mesh ASTM; Whatman, Clifton, N.J.). Anandamide, PEA and 2-AG were eluted with chloroform/methanol (9:1, vol/vol).
# Mobile phase A consisted of methanol containing 0.25% acetic acid, 5 mM ammonium acetate; mobile phase B consisted of water containing 0.25% acetic acid, 5 mM ammonium acetate. […] Column temperature was kept at 40° C. […] Limit of quantification was 0.4 pmol.
# [2] = Drug distribution coefficient n-octanol/buffer pH 7.4; format: physicochemical; conditions: n-octanol / aqueous buffer pH 7.4, 25±1° C., mean±sem, n=3; read-out: distribution coefficient, Log Doct,pH7.4
# Method: Drug distribution coefficients. We determined Log D7.4,oct values at room temperature (25±1° C.) partitioning the solutes between n-octanol and an aqueous solution buffered at pH 7.4^36.
# [3] = tested on: carrageenan-induced inflammation; experiment: Carrageenan-induced hyperalgesia, allodynia and paw edema; format: in vivo, mice; conditions: mice, 1 mg-kg^-1, i.p.
# Method: (§1) Behavioral tests. We measured nocifensive responses elicited by i.p. injection of acetic acid in male Swiss and C57B1/6 (wild-type or FAAH-deficient) mice^40, intraplantar injection of carrageenan in male Swiss mice^20, intraplantar injection of formalin in male Sprague-Dawley rats^41, and sciatic nerve ligation in male Swiss mice^39.
# Behavioral tests Acetic acid-induced writhing was measured in Swiss mice or C57B1/6 mice (wild-type and FAAH-deficient), as described^40 with minor modifications. Briefly, the mice were acclimated to the experimental room for 2 h. Each animal was injected with acetic acid (150 μL, 0.6% in saline) and placed into a glass cylinder. Abdominal stretches (extension of body and hind limbs) were counted for 20 min, starting 5 min after acetic acid injection. […] Behavior was scored by an observer blinded to the treatment conditions. Formalin-induced nociception was assessed in Sprague-Dawley rats, as described^41. The rats were singly housed and kept in a shared holding room under a 12:12 h light:dark cycle. They were given free access to food and water, and allowed to acclimate to the facility for a week before testing. […] They were acclimated to the observation container (clear plexiglas box, 29×29×25 cm) for 15 min before receiving an injection of formalin (50 μL, 5% in saline) into the dorsal surface of the right hind paw. Immediately after formalin injection, the rats were returned to the observation container and nocifensive behavior was recorded for 60 min with a video camera. Recordings were analyzed by observers blinded to treatment conditions. Nocifensive behavior was measured continuously for 60 min^41. […] Each 5-min bin was analyzed for time spent (1) lifting and (2) licking or biting the injected paw. Nocifensive behavior was analyzed using the composite pain score weighted scores technique (CPS-WST1,2) calculated for the entire time of observation (0-60 min) and, separately, for the first (0-10 min) and second phase (10-60 min) of the behavioral response^46. The area under the curve (AUC) corresponding to CPS-WST1,2 was calculated using the trapezoidal rule. Paw edema was induced in mice by injection into the right hind paws of 50 μL of sterile saline containing 1% λ-carrageenan. Paw volumes were measured using a plethysmometer (Ugo Basile, Milan, Italy). […] Rimonabant and AM630 (1 mg kg^−1, i.p.) were injected 30 min before carrageenan. Mechanical hyperalgesia was assessed by measuring the latency(s) to withdraw the paw from a constant mechanical pressure exerted onto its dorsal surface. A 15-g calibrated glass cylindrical rod (diameter=10 mm) chamfered to a conical point (diameter=3 mm) was used to exert the mechanical force. The weight was suspended vertically between two rings attached to a stand and was free to move vertically. A cutoff time of 3 min was used. Thermal hyperalgesia was assessed as described^47, measuring the latency to withdraw the hind paw from a focused beam of radiant heat (thermal intensity: infrared 3.0) applied to the plantar surface, using a commercial apparatus (Ugo Basile, Varese, Italy). The cutoff time was set at 30 s. Mechanical allodynia was assessed by applying a graded force to the plantar hind paw surface with a Von Frey filament, using a Dynamic Plantar Anesthesiometer (Ugo Basile). The cutoff force was set at 50 g.
# [4] = tested on: formalin-induced nociception; experiment: Formalin-induced pain behavior; format: in vivo; conditions: rats, 1 mg-kg^-1, i.p.
# Method: as §1
# Behavioral tests Acetic acid-induced writhing was measured in Swiss mice or C57B1/6 mice (wild-type and FAAH-deficient), as described^40 with minor modifications. Briefly, the mice were acclimated to the experimental room for 2 h. Each animal was injected with acetic acid (150 μL, 0.6% in saline) and placed into a glass cylinder. Abdominal stretches (extension of body and hind limbs) were counted for 20 min, starting 5 min after acetic acid injection. […] Behavior was scored by an observer blinded to the treatment conditions. Formalin-induced nociception was assessed in Sprague-Dawley rats, as described^41. […] Immediately after formalin injection, the rats were returned to the observation container and nocifensive behavior was recorded for 60 min with a video camera. Recordings were analyzed by observers blinded to treatment conditions. Nocifensive behavior was measured continuously for 60 min^41. […] Each 5-min bin was analyzed for time spent (1) lifting and (2) licking or biting the injected paw. […]
smiles,measurement,setting,value
"NC(=O)c1cccc(-c2cc(OC(=O)NC3CCCCC3)ccc2O)c1 [Compound 1b, cyclohexylcarbamic acid 3′-carbamoyl-6-hydroxybiphenyl-3-yl ester]",URB937 level in brain tissue after systemic administration,[1],undetectable
same,anandamide levels,FAAH,"increased anandamide levels in the periphery, not in forebrain or hypothalamus"
same,tissue levels of 2-AG in vivo,FAAH,did not alter
same,logD,[2],3.03 ± 0.01
same,"carrageenan-induced paw edema, 4 h",[3]; 4 h after carrageenan,did not affect paw edema
same,carrageenan-induced mechanical and thermal hyperalgesia,[3]; 4 h and 24 h following carrageenan,significant decrease
same,carrageenan-induced mechanical allodynia,[3]; 24 h after carrageenan,suppressed mechanical allodynia
same,"carrageenan-induced paw edema, 24 h",[3]; 24 h after carrageenan,reversed it
same,area under the curve of formalin-induced pain behavior,[4],decreased the area under the curve
